Measured values as given in US6852909B2, “Process for producing female-sterile plants” (priority 1996, dated 2005).

Tests used:
[1] = test system: plants; assay: Herbicidal activity, uptake, transport and deacetylation in plants; format: in vivo; details: for deacetylation activity in plants / uptake, transport and degradation in plants: in vivo; for herbicidal activity: plants without deacetylase gene
From the text: In this way, the above-described 2-gene system can be reduced to a 1-gene system and thereby crucially simplified, as explained in more detail below: any plants can be transformed with a Streptomycetes-derived deacetylase gene under the control of a tissue-specific promoter. Following application of N-acetylphosphinothricin or N-acetylphosphinothricin-tripeptide, the tissue-specific expression leads to the immediate death of the corresponding tissue.

[2] = test system: Nicotiana tabacum; assay: Treatment of Nicotiana tabacum plants carrying the deacetylase gene; format: in vivo; details: transgenic Nicotiana tabacum, killed by liberated PTC or PTT
Procedure: The deacetylase gene which was modified in Example 1 was transferred into A. tumefaciens LBA4404 using a two-factor cross. Nicotiana tabacum leaf disks were incubated with the resulting strains LBA4404/17.1 and LBA4404/17.2 and, after 3 days, transferred to a kanamycin-containing shoot-inducing medium. Southern hybridization can be used to test regenerating kanamycin-resistant shoots for the presence of the deacetylase gene.

[3] = test system: wild-type plant; assay: Injection of N-acetyl-PTC or N-acetyl-PTT into tobacco plants: stability, transport, effect on wild-type plant; format: in vivo
[4] = test system: GS; details: E. coli with endogenous deacetylase activity
From the text: The deacetylase converts N-Ac-PTC into PTC, which then inhibits the GS in a known manner, as can be measured in a γ-glutamyltransferase assay (Bender et al., J. Bacteriol. 129, 1001-1009, 1977).

[5] = test system: R. meliloti; assay: Sensitivity of R. meliloti to PTC and PTT; format: cell-based, Rhizobium meliloti
From the text: Plasmids pIB17.1 and pIB17.2 were therefore transferred by means of a 2 factor cross into the Rhizobium meliloti strain 2011.

[6] = test system: Gram-positive and Gram-negative bacteria; details: cited from earlier work
[7] = test system: Botrytis cinerea; details: cited from earlier work
[8] = test system: glutamine synthetase (GS); details: cited from earlier work
[9] = test system: plants; details: in vivo; cited from earlier work

CC(=O)NC(CCP(C)(=O)O)C(=O)O (stereo not drawn) [N-acetyl-PTC, N-acetylphosphinothricin]
deacetylation activity in plants [1]: No deacetylation activity | uptake, transport and degradation in plants [1]: taken up by plants and transported and not degraded immediately | herbicidal activity [1]: neither substance is herbicidally active | effect on plants containing the deacetylase gene [2]: the plants are then killed | stability and transport in the plant cell ([3]; in vivo): stable in the plant cell and transported into all cells | consequences for the wild-type plant [3]: Neither of the two substances has recognizably negative consequences | inhibition of GS activity after adding the substance [4]: efficient inhibition of GS activity

CC(=O)NC(CCP(C)(=O)O)C(=O)NC(C)C(=O)NC(C)C(=O)O (stereo not drawn) [N-acetyl-PTT, N-acetylphosphinothricin tripeptide]
deacetylation activity in plants [1]: No deacetylation activity | uptake, transport and degradation in plants [1]: taken up by plants and transported and not degraded immediately | herbicidal activity [1]: neither substance is herbicidally active | effect on plants containing the deacetylase gene [2]: the plants are then killed | consequences for the wild-type plant [3]: Neither of the two substances has recognizably negative consequences

C[C@H](NC(=O)[C@H](C)NC(=O)[C@@H](N)CCP(C)(=O)O)C(=O)O [PTT, phosphinothricylalanylalanine]
sensitivity of R. meliloti [5]: reacts very sensitively | activity against Gram-positive and Gram-negative bacteria [6]: active against Gram-positive and Gram-negative bacteria | activity against the fungus Botrytis cinerea [7]: also against the fungus Botrytis cinerea

2-amino-4-methylphosphinobutyric acid [PTC]
inhibitor of glutamine synthetase (GS) [8]: inhibitor of glutamine synthetase | sensitivity of R. meliloti [5]: reacts very sensitively | herbicidal action [9]: acts as a total herbicide
